The structures appear in SMILES notation.

What is called Ki is the dissociation constant of the complex between target and ligand, obtained from inhibition or displacement.

PIM1, sequence (P11309 whole entry): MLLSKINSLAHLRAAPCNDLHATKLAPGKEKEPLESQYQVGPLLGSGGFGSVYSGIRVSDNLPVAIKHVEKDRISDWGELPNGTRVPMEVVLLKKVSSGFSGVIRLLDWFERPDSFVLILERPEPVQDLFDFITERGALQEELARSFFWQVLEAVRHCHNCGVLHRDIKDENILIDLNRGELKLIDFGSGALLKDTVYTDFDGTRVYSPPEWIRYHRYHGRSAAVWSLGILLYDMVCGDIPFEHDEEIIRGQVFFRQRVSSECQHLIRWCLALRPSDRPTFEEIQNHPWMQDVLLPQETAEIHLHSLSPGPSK

The first assay addresses PIM1 (Homo sapiens (Human), UniProt P11309). In words: biochemical. Type of assay: biochemical.
Conditions: not given
`[2H]C([2H])([2H])O[C@@H]1CO[C@H](c2c(NC(=O)c3nc(-c4c(F)cccc4F)sc3N)cnn2C)CC[C@H]1N` [Example 174, 5-Amino-N-[5-[(2S,5R,6S)-5-amino-6-(trideuteriomethoxy)oxepan-2-yl]-1-methyl-pyrazol-4-yl]-2-(2,6-difluorophenyl)thiazole-4-carboxamide] yielded an inhibition constant Ki of 0.135 nM.

Staying with this assay, now noted: 20 pM PIM1, 1 μM FAM-peptide, 10 μM ATP, 90 minutes at room temperature; read-out: PIM1 LC3K (KI).
Take `Cn1ncc(NC(=O)c2nc(-c3c(F)cccc3F)sc2N)c1[C@H]1C[C@H](F)[C@@H](N)CCO1` [Example 137, 5-amino-N-(5-((2R,4S,5S)-5-amino-4-fluorooxepan-2-yl)-1-methyl-1H-pyrazol-4-yl)-2-(2,6-difluorophenyl)thiazole-4-carboxamide]: the inhibitory constant (Ki) was 0.099 nM.

With `CO[C@H]1C[C@H](c2c(NC(=O)c3nc(-c4c(F)cccc4F)sc3N)cnn2C)OCC[C@@H]1N` [Example 138, 5-amino-N-(5-((2R,4S,5S)-5-amino-4-methoxyoxepan-2-yl)-1-methyl-1H-pyrazol-4-yl)-2-(2,6-difluorophenyl)thiazole-4-carboxamide], the Ki turned out to be 1.87 nM.

For the molecule `Cn1ncc(NC(=O)c2nc(-c3ccccc3F)sc2N)c1C12CCC(CN)(CC1)O2` [Example 139, 5-amino-N-[5-[1-(aminomethyl)-7-oxabicyclo[2.2.1]heptan-4-yl]-1-methyl-pyrazol-4-yl]-2-(2-fluorophenyl)thiazole-4-carboxamide], the Ki was found to be 0.053 nM.

In the case of `Cn1ncc(NC(=O)c2nc(-c3c(F)cccc3F)sc2N)c1C1CC(F)C(N)CCO1` (stereo not drawn) [Example 140, 5-amino-N-(5-(5-amino-4-fluorooxepan-2-yl)-1-methyl-1H-pyrazol-4-yl)-2-(2,6-difluorophenyl)thiazole-4-carboxamide], the Ki worked out at 0.469 nM.

For the molecule `Cn1ncc(NC(=O)c2nc(-c3c(F)cccc3F)sc2N)c1C1C[C@@H](N)[C@H](F)CCO1` (stereo partly drawn) [Example 141, 5-amino-N-(5-((4R,5R)-4-amino-5-fluorooxepan-2-yl)-1-methyl-1H-pyrazol-4-yl)-2-(2,6-difluorophenyl)thiazole-4-carboxamide], the Ki amounted to 0.07 nM.

In the case of `CC1C(c2c(NC(=O)c3nc(-c4c(F)cccc4F)sc3N)cnn2C)OCC(C)(O)C1N` (stereo not drawn) [Example 142, 5-amino-N-[5-(4-amino-5-hydroxy-3,5-dimethyl-tetrahydropyran-2-yl)-1-methyl-pyrazol-4-yl]-2-(2,6-difluorophenyl)thiazole-4-carboxamide], the Ki was found to be 0.441 nM.

Turning to `Cn1ncc(NC(=O)c2nc(-c3c(F)cccc3F)sc2N)c1C1CCC(N)COC1` (stereo not drawn) [Example 144, 5-amino-N-[5-(6-aminooxepan-3-yl)-1-methyl-pyrazol-4-yl]-2-(2,6-difluorophenyl)thiazole-4-carboxamide], the Ki is 1.45 nM.

Take `Cn1ncc(NC(=O)c2nc(-c3c(F)cccc3F)sc2N)c1[C@@H]1C[C@H](O)CCO1` [Example 146, 5-amino-2-(2,6-difluorophenyl)-N-(5-((2S,4R)-4-hydroxytetrahydro-2H-pyran-2-yl)-1-methyl-1H-pyrazol-4-yl)thiazole-4-carboxamide]: the Ki amounted to 0.095 nM.

As to `Cn1ncc(NC(=O)c2nc(-c3c(F)cccc3F)sc2N)c1C1CCC(N)COC1` (stereo not drawn) [Example 147, 5-amino-N-[5-(6-aminooxepan-3-yl)-1-methyl-pyrazol-4-yl]-2-(2,6-difluorophenyl)thiazole-4-carboxamide], the inhibition constant (Ki) came out at 0.141 nM.

Regarding `Cn1ncc(NC(=O)c2nc(-c3c(F)cccc3F)sc2N)c1[C@H]1C[C@@H](O)CCO1` [Example 149, 5-amino-2-(2,6-difluorophenyl)-N-(5-((2R,4S)-4-hydroxytetrahydro-2H-pyran-2-yl)-1-methyl-1H-pyrazol-4-yl)thiazole-4-carboxamide], the Ki stood at 0.174 nM.

Turning to `Cn1ncc(NC(=O)c2nc(-c3c(F)cccc3F)sc2N)c1[C@@H]1CC(F)[C@H](N)CCO1` (stereo partly drawn) [Example 150, 5-Amino-N-[5-[(2S,5R)-5-amino-4-fluoro-oxepan-2-yl]-1-methyl-pyrazol-4-yl]-2-(2,6-difluorophenyl)thiazole-4-carboxamide], the Ki is 0.105 nM.

Turning to `Cn1ncc(NC(=O)c2nc(-c3c(F)cccc3F)sc2N)c1[C@H]1CC(F)[C@@H](N)CCO1` (stereo partly drawn) [Example 151, 5-Amino-N-[5-[(2R,5S)-5-amino-4-fluoro-oxepan-2-yl]-1-methyl-pyrazol-4-yl]-2-(2,6-difluorophenyl)thiazole-4-carboxamide], the Ki is 0.068 nM.

On to `Cn1ncc(NC(=O)c2nc(-c3c(F)cccc3F)sc2N)c1[C@H]1CC[C@H](N)C(F)(F)CO1` [Example 152], for which the Ki was determined as 0.031 nM.

With `Cn1ncc(NC(=O)c2nc(-c3c(F)cccc3F)sc2N)c1[C@H]1CC[C@H](F)[C@@H](N)CO1` [Example 153, 5-Amino-N-[5-[(2R,5S,6S)-6-amino-5-fluoro-oxepan-2-yl]-1-methyl-pyrazol-4-yl]-2-(2,6-difluorophenyl)thiazole-4-carboxamide], the Ki stood at 0.114 nM.

As to `Cn1ncc(NC(=O)c2nc(-c3cccc(C(F)(F)F)c3F)sc2N)c1[C@@H]1CC[C@@H](N)[C@H](F)CO1` [Example 156, 5-amino-N-(5-((2S,5R,6S)-5-amino-6-fluorooxepan-2-yl)-1-methyl-1H-pyrazol-4-yl)-2-(2-fluoro-3-(trifluoromethyl)phenyl)thiazole-4-carboxamide], the Ki was found to be 0.107 nM.

For `Cn1ncc(NC(=O)c2nc(-c3ccccc3OC(F)(F)F)sc2N)c1[C@@H]1CC[C@@H](N)[C@H](F)CO1` [Example 157, 5-amino-N-(5-((2S,5R,6S)-5-amino-6-fluorooxepan-2-yl)-1-methyl-1H-pyrazol-4-yl)-2-(2-(trifluoromethoxy)phenyl)thiazole-4-carboxamide], the Ki is 0.965 nM.

Turning to `Cn1ncc(NC(=O)c2nc(-c3c(F)cccc3F)sc2N)c1[C@H]1C[C@@H](N)CCO1` [Example 159, 5-Amino-N-[5-[(2R,4S)-4-aminotetrahydropyran-2-yl]-1-methyl-pyrazol-4-yl]-2-(2,6-difluorophenyl)thiazole-4-carboxamide], the Ki was determined as 0.019 nM.

For `Cn1ncc(NC(=O)c2nc(-c3c(F)cccc3F)sc2N)c1[C@@H]1C[C@H](N)CCO1` [Example 160, 5-Amino-N-[5-[(2S,4R)-4-aminotetrahydropyran-2-yl]-1-methyl-pyrazol-4-yl]-2-(2,6-difluorophenyl)thiazole-4-carboxamide], the Ki is 0.248 nM.

On to `CC[C@]1(CO)CO[C@H](c2c(NC(=O)c3nc(-c4c(F)cccc4F)sc3N)cnn2C)OC1` [Example 162, 5-Amino-2-(2,6-difluorophenyl)-N-[5-[5-ethyl-5-(hydroxymethyl)-1,3-dioxan-2-yl]-1-methyl-pyrazol-4-yl]thiazole-4-carboxamide], for which the Ki came to 0.025 nM.

As to `CC[C@]1(CO)CO[C@@H](c2c(NC(=O)c3nc(-c4c(F)cccc4F)sc3N)cnn2C)OC1` [Example 163, 5-Amino-2-(2,6-difluorophenyl)-N-[5-[5-ethyl-5-(hydroxymethyl)-1,3-dioxan-2-yl]-1-methyl-pyrazol-4-yl]thiazole-4-carboxamide], the Ki stood at 1.26 nM.

Consider `Cn1ncc(NC(=O)c2nc(-c3c(F)cccc3F)sc2N)c1C1OCC(CO)CO1` (stereo not drawn) [Example 164, 5-Amino-2-(2,6-difluorophenyl)-N-[5-[5-(hydroxymethyl)-1,3-dioxan-2-yl]-1-methyl-pyrazol-4-yl]thiazole-4-carboxamide], for which the Ki was 0.105 nM.

As for `Cn1ncc(NC(=O)c2nc(-c3c(F)cccc3F)sc2N)c1C1OCC(CO)CO1` (stereo not drawn) [Example 165, 5-Amino-2-(2,6-difluorophenyl)-N-[5-[5-(hydroxymethyl)-1,3-dioxan-2-yl]-1-methyl-pyrazol-4-yl]thiazole-4-carboxamide], the Ki amounted to 0.647 nM.

`Cn1ncc(NC(=O)c2nc(-c3c(F)cccc3F)sc2N)c1[C@H]1OC[C@@](C)(CO)CO1` [Example 166, 5-Amino-2-(2,6-difluorophenyl)-N-[5-[5-(hydroxymethyl)-5-methyl-1,3-dioxan-2-yl]-1-methyl-pyrazol-4-yl]thiazole-4-carboxamide]: the Ki stood at 0.514 nM.

Turning to `Cn1ncc(NC(=O)c2nc(-c3c(F)cccc3F)sc2N)c1[C@H]1OC[C@H](CN)CO1` [Example 167, 5-Amino-N-[5-[5-(aminomethyl)-1,3-dioxan-2-yl]-1-methyl-pyrazol-4-yl]-2-(2,6-difluorophenyl)thiazole-4-carboxamide], the Ki was 0.029 nM.

`Cn1ncc(NC(=O)c2nc(-c3c(F)cccc3F)sc2N)c1[C@@H]1CC[C@@H](N)C(F)(F)CO1` [Example 168, 5-Amino-N-[5-[(2S,5R)-5-amino-6,6-difluoro-oxepan-2-yl]-1-methyl-pyrazol-4-yl]-2-(2,6-difluorophenyl)thiazole-4-carboxamide]: the Ki came to 0.013 nM.

`Cn1ncc(NC(=O)c2nc(-c3c(F)cccc3F)sc2N)c1[C@H]1CC[C@H](N)C(F)(F)CO1` [Example 169, 5-Amino-N-[5-[(2R,5S)-5-amino-6,6-difluoro-oxepan-2-yl]-1-methyl-pyrazol-4-yl]-2-(2,6-difluorophenyl)thiazole-4-carboxamide]: the Ki is 0.341 nM.

Consider `Cn1ncc(NC(=O)c2nc(-c3c(F)cccc3F)sc2N)c1[C@H]1CC[C@H](CN)O1` [Example 171, 5-Amino-N-[5-[(2R,5R)-5-(aminomethyl)tetrahydrofuran-2-yl]-1-methyl-pyrazol-4-yl]-2-(2,6-difluorophenyl)thiazole-4-carboxamide], for which the Ki amounted to 0.027 nM.

With `Cn1ncc(NC(=O)c2nc(-c3c(F)cccc3F)sc2N)c1[C@@H]1CC[C@@H](CN)O1` [Example 172, 5-Amino-N-[5-[(2S,5S)-5-(aminomethyl)tetrahydrofuran-2-yl]-1-methyl-pyrazol-4-yl]-2-(2,6-difluorophenyl)thiazole-4-carboxamide], the Ki is 0.15 nM.

Regarding `CC[C@]1(CN)CO[C@H](c2c(NC(=O)c3nc(-c4c(F)cccc4F)sc3N)cnn2C)OC1` [Example 173, 5-Amino-N-[5-[5-(aminomethyl)-5-ethyl-1,3-dioxan-2-yl]-1-methyl-pyrazol-4-yl]-2-(2,6-difluorophenyl)thiazole-4-carboxamide], the Ki was determined as 0.015 nM.
